From patent US6949536B2, “Sulfonylbenzene compounds as anti-inflammatory/analgesic agents” (Pfizer, Inc., priority 1998, dated 2005)
Structures can show the parent of a compound that is named as a salt.

| SMILES | melting point |
| --- | --- |
| CS(=O)(=O)c1ccc(-n2nc(C(F)(F)F)cc2-c2ccc(-c3cnco3)cc2)cc1 (as salt: hydrochloride) [Example 76, 1-[4-(Methylsulfonyl)phenyl]-5-[4-(5-oxazolyl)phenyl]-3-(trifluoromethyl)-1H-pyrazole] | 178 to 180 °C |
| Cc1cc(-c2cc(C(F)(F)F)nn2-c2ccc(S(C)(=O)=O)cc2)ccc1-c1ccco1 (as salt: hydrochloride) [Example 31, 1-[4-(Methylsulfonyl)phenyl]-5-[4-(2-furyl)-3-methylphenyl]-3-(trifluoromethyl)-1H-pyrazole] | 174 to 176 °C |
| CS(=O)(=O)c1ccc(-n2nc(C(F)(F)F)cc2-c2ccc(-c3cocn3)cc2)cc1 (as salt: hydrochloride) [Example 95, 4-{4-[1-[4-(Methylsulfonyl)phenyl]-3-(trifluoromethyl)-1H-pyrazol-5-yl]phenyl}-1,3-oxazole] | 175 to 177 °C |
| NS(=O)(=O)c1ccc(-n2nc(C(F)(F)F)cc2-c2ccc(-c3ncco3)cc2)cc1 (as salt: hydrochloride) [Example 98, 4-[5-[4-(1,3-Oxazol-2-yl)phenyl]-3-(trifluoromethyl)-1H-pyrazol-1-yl]benzenesulfonamide] | 215 to 217 °C |
| Cc1cc(-c2ccc(S(C)(=O)=O)cc2)n(-c2ccc(-c3ccco3)cc2)c1 [Example 58, 1-[4-(2-Furyl)phenyl]-4-methyl-2-[4-(methylsulfonyl)phenyl]-1H-pyrrole] | 133 to 135 °C |
| Cc1ccc(-c2ccc(S(C)(=O)=O)c(F)c2)n1-c1ccc(-c2ccoc2)cc1 [Example 36, 5-[3-Fluoro-4-(methylsulfonyl)phenyl]-1-[4-(3-furyl)phenyl]-2-methyl-1H-pyrrole] | 147 to 150 °C |
| CS(=O)(=O)c1ccc(-n2cc(C(F)(F)F)nc2-c2ccc(-c3ccco3)cc2)cc1 [Example 53, 2-[4-(2-Furyl)phenyl]-1-[4-(methylsulfonyl)phenyl]-4-(trifluoromethyl)-1H-imidazole] | 82 to 84 °C |
| CS(=O)(=O)c1ccc(-n2nc(C(F)(F)F)cc2-c2ccc(-c3cscn3)cc2)cc1F [Example 99, 4-{4-[1-[3-Fluoro-4-(methylsulfonyl)phenyl]-3-(trifluoromethyl)-1H-pyrazol-5-yl]phenyl}-1,3-thiazole] | 125 to 127 °C |

Results, then the compound that gave them:

| melting point | SMILES |
| --- | --- |
| 112 to 114 °C | Cc1cc(-c2cc(C(F)(F)F)nn2-c2ccc(S(N)(=O)=O)cc2)ccc1-c1cocn1 (as salt: hydrochloride) [Example 116, 4-[5-[3-Methyl-4-(1,3-oxazol-4-yl)phenyl]-3-(trifluoromethyl)-1H-pyrazol-1-yl]benzenesulfonamide] |
| 239 to 240 °C | CS(=O)(=O)c1ccc(-n2nc(C(N)=O)cc2-c2ccc(-c3ccco3)cc2)cc1F [Example 132, 1-[3-Fluoro-4-(methylsulfonyl)phenyl]-5-[4-(2-furyl)phenyl]-1H-pyrazole-3-carboxamide] |
| 256 to 257 °C | CCOc1cc(-n2nc(C(=O)O)cc2-c2ccc(-c3ccco3)cc2)ccc1S(C)(=O)=O [Example 127, 1-[3-Ethoxy-4-(methylsulfonyl)phenyl]-5-[4-(2-furyl)phenyl]-1H-pyrazole-3-carboxylic Acid] |
| 196 to 197 °C | Cc1nc(-c2ccc(-c3cscn3)cc2)c(-c2ccc(S(C)(=O)=O)c(F)c2)o1 [Example 169, 5-[3-Fluoro-4-(methylsulfonyl)phenyl]-2-methyl-4-[4-(1,3-thiazol-4-yl)phenyl]-1,3-oxazole] |
| 196 to 198 °C | CNC(=O)c1cc(-c2ccc(-c3ccco3)cc2)n(-c2ccc(S(C)(=O)=O)c(F)c2)n1 [Example 131, N-Methyl-1-[3-fluoro-4-(methylsulfonyl)phenyl]-5-[4-(2-furyl)phenyl]-1H-pyrazole-3-carboxamide] |
| 140 to 142 °C | NS(=O)(=O)c1ccc(-n2nc(C(F)(F)F)cc2-c2ccc(-c3cscn3)c(C(F)(F)F)c2)cc1F [Example 176, 2-Fluoro-4-[5-[4-(1,3-thiazol-4-yl)-3-(trifluoromethyl)phenyl]-3-(trifluoromethyl)-1H-pyrazol-1-yl]benzenesulfonamide] |
| 130 °C | Cc1onc(-c2ccc(-c3cscn3)cc2)c1-c1ccc(S(C)(=O)=O)c(F)c1 [Example 168, 4-[3-Fluoro-4-(methylsulfonyl)phenyl]-5-methyl-3-[4-(1,3-thiazol-4-yl)phenyl]isoxazole] |
| 137.4 °C | Cc1cc(-n2nc(C(F)(F)F)cc2-c2ccc(-c3ccco3)cc2)ccc1S(N)(=O)=O (as salt: hydrochloride) [Example 143, 4-[5-[4-(2-Furyl)phenyl]-3-(trifluoromethyl)-1H-pyrazol-1-yl]-2-methylbenzenesulfonamide] |
| 174.4 °C | NS(=O)(=O)c1ccc(-n2nc(C(F)(F)F)cc2-c2ccc(-c3ccco3)cc2)c(F)c1 (as salt: hydrochloride) [Example 141, 3-Fluoro-4-[5-[4-(2-furyl)phenyl]-3-(trifluoromethyl)-1H-pyrazol-1-yl]benzenesulfonamide] |
| 97 to 99 °C | COc1cc(-c2cc(C(F)(F)F)nn2-c2ccc(S(N)(=O)=O)c(F)c2)ccc1-c1cscn1 (as salt: hydrochloride) [Example 175, 2-Fluoro-4-[5-[3-methoxy-4-(1,3-thiazol-4-yl)phenyl]-3-(trifluoromethyl)-1H-pyrazol-1-yl]benzenesulfonamide] |
| 87 to 89 °C | Cc1cc(S(N)(=O)=O)ccc1-n1nc(C(F)(F)F)cc1-c1ccc(-c2ccco2)cc1 (as salt: hydrochloride) [Example 145, 4-[5-[4-(2-Furyl)phenyl]-3-(trifluoromethyl)-1H-pyrazol-1-yl]-3-methylbenzenesulfonamide] |
